Test results taken from US10745382B2 (BRISTOL-MYERS SQUIBB COMPANY, priority 2015, dated 2020).
Read-outs that look alike come from different tables or passages of the source.

Biological target: T1, PD-1/PD-L1 (Homo sapiens, UniProt Q9NZQ7)
T1 construct: made in house; host or cells: HEK293T
Assay: PD-1/PD-L1 Homogenous Time-Resolved Fluorescence (HTRF) binding assay
Conditions: PD-L1-His 10 nM, PD-1-Ig 20 nM, read-out: Range or IC50
Experimental: The ability of the compounds of formula (I) to bind to PD-L1 was investigated using a PD-1/PD-L1 Homogenous Time-Resolved Fluorescence (HTRF) binding assay.
Homogenous Time-Resolved Fluorescence (HTRF) Binding Assay.
All binding studies were performed in an HTRF assay buffer consisting of dPBS supplemented with 0.1% […] bovine serum albumin and 0.05% (v/v) Tween-20. […] HTRF detection was achieved using europium crypate-labeled anti-Ig (1 nM final) and allophycocyanin (APC) labeled anti-His (20 nM final). Antibodies were diluted in HTRF detection buffer and 5 μl was dispensed on top of the binding reaction. […] Additional binding assays were established between the human proteins PD-1-Ig/PD-L2-His (20 & 5 nM, respectively) and CD80-His/PD-L1-Ig (100 & 10 nM, respectively). […]

T1 sequence (Q9NZQ7 with tags, fused parts or gaps): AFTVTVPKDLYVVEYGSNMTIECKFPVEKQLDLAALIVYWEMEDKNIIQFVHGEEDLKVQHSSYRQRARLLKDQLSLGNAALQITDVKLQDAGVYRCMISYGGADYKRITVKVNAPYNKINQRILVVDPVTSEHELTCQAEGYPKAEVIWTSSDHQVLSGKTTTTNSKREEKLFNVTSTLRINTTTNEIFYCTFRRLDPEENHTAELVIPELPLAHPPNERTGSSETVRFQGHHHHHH

IC50 (value given as range class) [nM]	IC50 (numeric IC50) [nM]	SMILES
0.21 to 10		Cc1c(COc2cc(OCc3cncc(C#N)c3)c(CN[C@@](C)(CO)C(=O)O)cc2Cl)cccc1-c1cccc(O[C@H](C)CCN2CC[C@@H](O)C2)c1Cl [Example 1524]
0.21 to 10		Cc1c(COc2cc(OCc3cncc(C#N)c3)c(CN3CCCC[C@H]3C(=O)O)cc2Cl)cccc1-c1cccc(OCCCN[C@@H](CO)c2ccccc2)c1C [Example 2230, (2S)-1-(5-chloro-2-((5-cyanopyridin-3-yl)methoxy)-4-((3′-(3-((R)-2-hydroxy-1-phenylethylamino)propoxy)-2,2′-dimethylbiphenyl-3-yl)methoxy)benzyl)piperidine-2-carboxylic Acid]
0.21 to 10		Cc1cc(OCc2cccc(-c3cccc(OCCCN4CC[C@@H](O)C4)c3C)c2C)cc(OCc2cncc(C#N)c2)c1CNC(C)(CO)CO [Example 4088, (R)-5-((2-(((1,3-dihydroxy-2-methylpropan-2-yl)amino)methyl)-5-((3′-(3-(3-hydroxypyrrolidin-1-yl)propoxy)-2,2′-dimethyl-[1,1′-biphenyl]-3-yl)methoxy)-3-methylphenoxy)methyl)nicotinonitrile]
0.21 to 10		CC(=O)NC1CCN(CCCOc2cccc(-c3cccc(COc4cc(OCc5cncc(C#N)c5)c(CN(CCC(F)(F)F)C(CO)CO)cc4Cl)c3C)c2Cl)CC1 [Example 2073, N-(1-(3-((2-chloro-3′-((2-chloro-5-((5-cyanopyridin-3-yl)methoxy)-4-(((1,3-dihydroxypropan-2-yl)(3,3,3-trifluoropropyl)amino)methyl)phenoxy)methyl)-2′-methyl-[1,1′-biphenyl]-3-yl)oxy)propyl)piperidin-4-yl)acetamide]
0.21 to 10		Cc1c(COc2cc(OCc3cncc(C#N)c3)c(CN(C)C(C)(CO)CO)cc2Cl)cccc1-c1cccc(OCCCN2CC[C@@H](O)C2)c1Cl [Example 2076, (R)-5-((4-chloro-5-((2′-chloro-3′-(3-(3-hydroxypyrrolidin-1-yl)propoxy)-2-methyl-[1,1′-biphenyl]-3-yl)methoxy)-2-(((1,3-dihydroxy-2-methylpropan-2-yl)(methyl)amino)methyl)phenoxy)methyl)nicotinonitrile]
0.21 to 10		Cc1c(COc2cc(OCc3cncc(S(C)(=O)=O)c3)c(CN[C@@](C)(CO)C(=O)O)cc2Cl)cccc1-c1cccc(OCCCN2CC[C@@H](O)C2)c1 [Example 1024, (S)-2-((5-chloro-4-((3′-(3-((R)-3-hydroxypyrrolidin-1-yl)propoxy)-2-methyl-[1,1′-biphenyl]-3-yl)methoxy)-2-((5-(methylsulfonyl)pyridin-3-yl)methoxy)benzyl)amino)-3-hydroxy-2-methylpropanoic Acid]
10 to 100		Cc1ccc(OCCCN2CC[C@@H](O)C2)c(C)c1-c1cccc(COc2cc(OCc3cncc(C#N)c3)c(C=O)cc2Cl)c1C [Example 3027, 5-((4-chloro-2-formyl-5-((3′-(3-((R)-3-hydroxypyrrolidin-1-yl)propoxy)-2,2′,6′-trimethyl-[1,1′-biphenyl]-3-yl)methoxy)phenoxy)methyl)nicotinonitrile]
	5.3	Cc1c(COc2cc(OCc3cncc(C#N)c3)c(CN3CCCC[C@H]3C(=O)O)cc2Cl)cccc1-c1cccc(OCCCN(C)C)c1C [Example 2253, (2S)-1-(5-chloro-2-((5-cyanopyridin-3-yl)methoxy)-4-((3′-(3-(dimethylamino)propoxy)-2,2′-dimethylbiphenyl-3-yl)methoxy)benzyl)piperidine-2-carboxylic Acid]
0.21 to 10		Cc1c(COc2cc(OCc3cncc(C#N)c3)c(CNC(C)(CO)CO)cc2Cl)cccc1-c1cccc(OCCCN2CCC(F)(F)C2)c1C [Example 4117, 5-((4-chloro-5-((3′-(3-(3,3-difluoropyrrolidin-1-yl)propoxy)-2,2′-dimethyl-[1,1′-biphenyl]-3-yl)methoxy)-2-(((1,3-dihydroxy-2-methylpropan-2-yl)amino)methyl)phenoxy)methyl)nicotinonitrile]
0.21 to 10		Cc1c(COc2cc(OCc3cncc(C#N)c3)c(CN[C@@](C)(CO)C(=O)O)cc2Cl)cccc1-c1cccc(OCCCN2CC[C@@H](O)C2)c1Cl [Example 1511, (S)-2-((5-chloro-4-((2′-chloro-3′-(3-((R)-3-hydroxypyrrolidin-1-yl)propoxy)-2-methyl-[1,1′-biphenyl]-3-yl)methoxy)-2-((5-cyanopyridin-3-yl)methoxy)benzyl)amino)-3-hydroxy-2-methylpropanoic acid]
0.21 to 10		Cc1ccc(OCCCN2CC[C@@H](O)C2)c(C)c1-c1cccc(COc2cc(OCc3cncc(C#N)c3)c(CN[C@@H](CO)C(=O)O)cc2Cl)c1C [Example 3031, (2S)-2-((5-chloro-2-((5-cyanopyridin-3-yl)methoxy)-4-((3′-(3-((R)-3-hydroxypyrrolidin-1-yl)propoxy)-2,2′,6′-trimethyl-[1,1′-biphenyl]-3-yl)methoxy)benzyl)amino)-3-hydroxypropanoic Acid]
0.21 to 10		Cc1c(COc2cc(OCc3cncc(C#N)c3)c(CN3CCCCC3CO)cc2Cl)cccc1-c1cccc(OCCCN2CCCCC2CO)c1C (stereo not drawn) [Example 2256, 5-((4-chloro-2-((2-(hydroxymethyl)piperidin-1-yl)methyl)-5-((3′-(3-(2-(hydroxymethyl)piperidin-1-yl)propoxy)-2,2′-dimethylbiphenyl-3-yl)methoxy)phenoxy)methyl)nicotinonitrile]
0.21 to 10		Cc1c(COCCN2CC[C@@H](O)C2)cccc1-c1cccc(COc2cc(OCc3cncc(C#N)c3)c(CN(C)C(C)(CO)CO)cc2Cl)c1C [Example 4128, (R)-5-((4-chloro-2-(((1,3-dihydroxy-2-methylpropan-2-yl)(methyl)amino)methyl)-5-((3′-((2-(3-hydroxypyrrolidin-1-yl)ethoxy)methyl)-2,2′-dimethyl-[1,1′-biphenyl]-3-yl)methoxy)phenoxy)methyl)nicotinonitrile]
0.21 to 10		Cc1c(CCCCN2CC[C@@H](O)C2)cccc1-c1cccc(COc2cc(OCc3cncc(C#N)c3)c(CN3CCCC[C@H]3C(=O)O)cc2Cl)c1C [Example 4061, (S)-1-(5-chloro-2-((5-cyanopyridin-3-yl)methoxy)-4-((3′-(4-((R)-3-hydroxypyrrolidin-1-yl)butyl)-2,2′-dimethyl-[1,1′-biphenyl]-3-yl)methoxy)benzyl)piperidine-2-carboxylic Acid]
0.21 to 10		Cc1c(COc2cc(OCc3cncc(C#N)c3)c(CN[C@](C)(CO)C(=O)O)cc2Cl)cccc1-c1cccc(OCCCN2[C@@H]3CC[C@H]2C[C@@H](O)C3)c1 [Example 3019, (R)-2-((5-chloro-2-((5-cyanopyridin-3-yl)methoxy)-4-((3′-(3-((1R,3R,5S)-3-hydroxy-8-azabicyclo[3.2.1]octan-8-yl)propoxy)-2-methyl-[1,1′-biphenyl]-3-yl)methoxy)benzyl)amino)-3-hydroxy-2-methylpropanoic Acid]
0.21 to 10		Cc1c(COc2cc(OCc3cncc(C#N)c3)c(CN3CCCC[C@H]3C(=O)O)cc2Cl)cccc1-c1cccc(OCCCN2CCCCC2C(N)=O)c1C (stereo partly drawn) [Example 2244, (2S)-1-(4-((3′-(3-(2-carbamoylpiperidin-1-yl)propoxy)-2,2′-dimethylbiphenyl-3-yl)methoxy)-5-chloro-2-((5-cyanopyridin-3-yl)methoxy)benzyl)piperidine-2-carboxylic Acid]
0.21 to 10		Cc1c(COc2cc(OCc3cncc(C#N)c3)c(CN[C@H](CO)C(=O)O)cc2Cl)cccc1-c1cccc(OCCC(=O)N2CC[C@@H](O)C2)c1 [Example 1009, (R)-2-((5-chloro-2-((5-cyanopyridin-3-yl)methoxy)-4-((3′-(3-((R)-3-hydroxypyrrolidin-1-yl)-3-oxopropoxy)-2-methyl-[1,1′-biphenyl]-3-yl)methoxy)benzyl)amino)-3-hydroxypropanoic Acid]
10 to 100		CNC(=O)c1cccc(-c2cccc(COc3cc(OCc4cncc(C#N)c4)c(CN4CCC[C@H]4C(=O)O)cc3Cl)c2C)c1C [Example 4012, (5-chloro-2-((5-cyanopyridin-3-yl)methoxy)-4-((2,2′-dimethyl-3′-(methylcarbamoyl)-[1,1′-biphenyl]-3-yl)methoxy)benzyl)-L-proline]
0.21 to 10		Cc1c(COc2cc(OCc3cncc(S(C)(=O)=O)c3)c(CN[C@H](CO)C(=O)O)cc2Cl)cccc1-c1cccc(OCCCN2CCC(CO)(C(=O)O)C2)c1C (stereo partly drawn) [Example 1050, 1-(3-((3′-((4-((((R)-1-carboxy-2-hydroxyethyl)amino)methyl)-2-chloro-5-((5-(methylsulfonyl)pyridin-3-yl)methoxy)phenoxy)methyl)-2,2′-dimethyl-[1,1′-biphenyl]-3-yl)oxy)propyl)-3-(hydroxymethyl)pyrrolidine-3-carboxylic Acid]
0.21 to 10		Cc1c(COc2cc(OCc3cncc(C#N)c3)c(CNC(CO)CO)cc2Cl)cccc1-c1cccc(CN(C)CCN2CCS(=O)(=O)CC2)c1C [Example 4080, 5-((4-chloro-2-(((1,3-dihydroxypropan-2-yl)amino)methyl)-5-((3′-(((2-(1,1-dioxidothiomorpholino)ethyl)(methyl)amino)methyl)-2,2′-dimethyl-[1,1′-biphenyl]-3-yl)methoxy)phenoxy)methyl)nicotinonitrile]

SMILES	IC50 (value given as range class) [nM]	IC50 (numeric IC50) [nM]
Cc1c(COc2cc(OCc3cncc(C#N)c3)c(CNC(C)(CO)CO)cc2Cl)cccc1-c1cccc(OCCC(C)(C)O)c1Cl [Example 2080, 5-((4-chloro-5-((2′-chloro-3′-(3-hydroxy-3-methylbutoxy)-2-methyl-[1,1′-biphenyl]-3-yl)methoxy)-2-(((1,3-dihydroxy-2-methylpropan-2-yl)amino)methyl)phenoxy)methyl)nicotinonitrile]	0.21 to 10	
